Measured values reported in ChEMBL document CHEMBL1201862, “PubChem BioAssay data set” (2004).
Activity calls are given as the source filed them.

Legend:
[1] = target: T1, Neuropeptide Y receptor type 1 (Homo sapiens, UniProt P25929); assay: NPY-Y1 receptor antagonist potency, dose response, cell-based (AID 1277); format: functional
T1 sequence (P25929 whole entry): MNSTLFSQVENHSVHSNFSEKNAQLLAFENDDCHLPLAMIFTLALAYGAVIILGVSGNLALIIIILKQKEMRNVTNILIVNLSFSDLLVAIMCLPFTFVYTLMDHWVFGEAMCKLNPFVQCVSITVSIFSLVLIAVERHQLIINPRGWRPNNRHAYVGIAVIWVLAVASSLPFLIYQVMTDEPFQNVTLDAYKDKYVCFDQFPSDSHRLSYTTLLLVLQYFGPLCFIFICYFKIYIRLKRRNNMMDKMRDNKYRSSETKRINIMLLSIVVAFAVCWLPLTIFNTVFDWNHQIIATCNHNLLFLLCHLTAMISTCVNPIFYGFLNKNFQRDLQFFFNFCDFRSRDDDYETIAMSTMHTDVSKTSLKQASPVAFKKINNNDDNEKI

[2] = target: T2, Neuropeptide Y receptor type 2 (Homo sapiens, UniProt P49146); assay: NPY-Y2 antagonist potency, selectivity check, dose response, counter-screen for NPY-Y1 antagonist project, cell-based (AID 1278); format: functional
T2 sequence (P49146 whole entry): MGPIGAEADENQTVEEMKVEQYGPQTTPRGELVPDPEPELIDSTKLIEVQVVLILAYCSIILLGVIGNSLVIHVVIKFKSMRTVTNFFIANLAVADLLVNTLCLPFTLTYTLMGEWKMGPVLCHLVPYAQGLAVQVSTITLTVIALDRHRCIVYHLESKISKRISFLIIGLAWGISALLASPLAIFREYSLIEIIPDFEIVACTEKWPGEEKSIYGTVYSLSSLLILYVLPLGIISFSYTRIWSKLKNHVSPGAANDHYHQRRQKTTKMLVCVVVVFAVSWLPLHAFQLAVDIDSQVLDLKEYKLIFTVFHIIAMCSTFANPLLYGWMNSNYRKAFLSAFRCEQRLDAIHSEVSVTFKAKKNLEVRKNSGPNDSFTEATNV

[3] = target: Peroxisome proliferator-activated receptor gamma/Nuclear receptor coactivator 3 (Homo sapiens, UniProt P37231); format: functional;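 note: agonist potency for raising coactivator recruitment to the receptor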
[4] = target: Peroxisome proliferator-activated receptor gamma/Nuclear receptor coactivator 2 (Homo sapiens, UniProt P37231); format: functional;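 note: agonist potency for raising coactivator recruitment to the receptor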
Peroxisome proliferator-activated receptor gamma/Nuclear receptor coactivator 2, sequence (P37231 whole entry): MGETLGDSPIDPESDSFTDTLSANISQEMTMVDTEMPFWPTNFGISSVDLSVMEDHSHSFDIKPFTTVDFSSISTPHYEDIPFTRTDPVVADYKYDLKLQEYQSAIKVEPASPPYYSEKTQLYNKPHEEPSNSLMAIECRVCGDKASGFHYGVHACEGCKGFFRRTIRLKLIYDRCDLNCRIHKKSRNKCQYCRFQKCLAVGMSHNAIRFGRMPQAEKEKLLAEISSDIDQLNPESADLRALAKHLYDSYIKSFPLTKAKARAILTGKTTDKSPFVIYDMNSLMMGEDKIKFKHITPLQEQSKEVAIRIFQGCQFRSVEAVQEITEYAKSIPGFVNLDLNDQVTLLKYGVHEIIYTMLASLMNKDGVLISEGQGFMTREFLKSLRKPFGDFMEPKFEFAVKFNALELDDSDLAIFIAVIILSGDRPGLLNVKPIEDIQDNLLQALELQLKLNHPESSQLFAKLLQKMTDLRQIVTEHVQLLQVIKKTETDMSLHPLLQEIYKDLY
Peroxisome proliferator-activated receptor gamma/Nuclear receptor coactivator 2, sequence (Q15596 whole entry, further chain): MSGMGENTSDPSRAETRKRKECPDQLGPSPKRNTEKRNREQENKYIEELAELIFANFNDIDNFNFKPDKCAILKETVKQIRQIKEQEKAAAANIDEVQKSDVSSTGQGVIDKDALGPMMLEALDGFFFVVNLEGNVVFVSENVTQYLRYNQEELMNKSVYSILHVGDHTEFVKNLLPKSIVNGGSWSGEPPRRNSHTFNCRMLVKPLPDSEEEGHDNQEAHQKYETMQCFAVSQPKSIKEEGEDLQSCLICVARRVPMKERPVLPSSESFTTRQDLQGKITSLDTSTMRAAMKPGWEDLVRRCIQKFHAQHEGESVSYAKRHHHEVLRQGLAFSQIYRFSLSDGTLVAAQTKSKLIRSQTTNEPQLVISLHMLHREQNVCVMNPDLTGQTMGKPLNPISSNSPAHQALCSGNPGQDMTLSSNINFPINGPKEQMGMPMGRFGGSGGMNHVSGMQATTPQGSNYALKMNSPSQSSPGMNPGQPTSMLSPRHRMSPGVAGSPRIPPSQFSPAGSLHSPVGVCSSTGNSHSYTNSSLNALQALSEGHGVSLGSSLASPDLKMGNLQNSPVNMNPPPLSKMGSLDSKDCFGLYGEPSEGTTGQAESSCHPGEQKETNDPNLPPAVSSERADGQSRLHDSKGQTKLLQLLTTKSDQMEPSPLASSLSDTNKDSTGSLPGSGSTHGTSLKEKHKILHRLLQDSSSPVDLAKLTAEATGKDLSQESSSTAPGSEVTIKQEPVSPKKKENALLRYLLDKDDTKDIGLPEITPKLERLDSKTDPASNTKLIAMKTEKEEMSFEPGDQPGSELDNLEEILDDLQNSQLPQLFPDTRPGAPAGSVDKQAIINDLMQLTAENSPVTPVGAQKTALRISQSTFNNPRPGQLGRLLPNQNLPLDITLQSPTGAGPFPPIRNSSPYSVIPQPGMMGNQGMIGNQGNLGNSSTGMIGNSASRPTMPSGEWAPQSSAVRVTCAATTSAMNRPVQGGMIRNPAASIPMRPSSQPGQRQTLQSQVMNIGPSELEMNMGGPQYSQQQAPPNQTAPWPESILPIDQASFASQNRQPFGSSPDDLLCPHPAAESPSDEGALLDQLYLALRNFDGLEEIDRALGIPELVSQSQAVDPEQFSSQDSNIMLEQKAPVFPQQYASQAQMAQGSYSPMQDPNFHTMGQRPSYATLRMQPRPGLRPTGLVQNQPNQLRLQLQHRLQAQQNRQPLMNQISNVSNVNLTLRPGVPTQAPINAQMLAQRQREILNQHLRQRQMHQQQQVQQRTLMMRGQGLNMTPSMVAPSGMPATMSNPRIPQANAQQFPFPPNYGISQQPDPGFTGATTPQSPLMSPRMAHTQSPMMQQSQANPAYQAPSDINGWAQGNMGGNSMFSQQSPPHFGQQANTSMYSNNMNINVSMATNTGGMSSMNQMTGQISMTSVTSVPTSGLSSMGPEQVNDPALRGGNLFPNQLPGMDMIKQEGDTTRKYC

[5] = target: Peroxisome proliferator-activated receptor gamma/Nuclear receptor coactivator 1 (Homo sapiens, UniProt P37231); format: functional;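 note: agonist potency as compounds enhance coactivator SRC-1 recruitment to PPARgamma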
BJ [6] = assay: cytotoxicity toward BJ-TERT fibroblasts, dose response, cell-based, RAS-independent, luminescence (AID 1933); format: functional; conditions: Homo sapiens
[7] = target: T3, RNA-binding protein pos-1 (Caenorhabditis elegans, UniProt G5EF15); assay: inhibitors of POS-1/mex-3 RNA binding, dose response, biochemical, fluorescence polarization (AID 1964);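 note: purified POS-1 fused to maltose binding protein made in E. coli; potency of compounds blocking POS-1 binding to fluorescent RNA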
T3 sequence (G5EF15 whole entry): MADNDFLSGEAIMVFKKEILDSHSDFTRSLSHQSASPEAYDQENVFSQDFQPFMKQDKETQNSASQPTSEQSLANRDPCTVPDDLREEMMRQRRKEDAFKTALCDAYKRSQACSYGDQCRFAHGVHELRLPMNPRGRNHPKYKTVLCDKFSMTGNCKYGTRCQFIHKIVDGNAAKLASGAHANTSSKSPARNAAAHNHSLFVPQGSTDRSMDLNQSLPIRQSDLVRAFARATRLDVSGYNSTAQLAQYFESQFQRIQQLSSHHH

Nonstructural protein 1 = Nonstructural protein 1 (Influenza A virus, UniProt Q194T2); format: functional, Influenza A virus (A/California/07/2009(H1N1))
Nonstructural protein 1, sequence (Q194T2 whole entry): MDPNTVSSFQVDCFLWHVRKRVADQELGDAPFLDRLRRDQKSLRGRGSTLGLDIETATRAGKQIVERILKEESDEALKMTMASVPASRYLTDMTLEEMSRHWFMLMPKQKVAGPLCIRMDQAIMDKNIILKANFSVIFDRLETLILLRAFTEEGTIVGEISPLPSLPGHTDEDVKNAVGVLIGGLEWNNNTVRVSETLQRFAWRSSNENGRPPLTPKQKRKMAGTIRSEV

[8] = Luminescence Cell-Based Dose Response HTS to Identify Inhibitors of 5'UTR Stem-Loop Driven Prion Protein mRNA Translation in H4 Neuroglioblastoma Cells. [Related pubchem assays: 1827 (Project Summary), 1813 (Primary HTS)]; format: functional
Beta-galactosidase [9] = target: T4, Beta-galactosidase (Escherichia coli, UniProt Q8VNN2); format: functional
T4 sequence (Q8VNN2 whole entry): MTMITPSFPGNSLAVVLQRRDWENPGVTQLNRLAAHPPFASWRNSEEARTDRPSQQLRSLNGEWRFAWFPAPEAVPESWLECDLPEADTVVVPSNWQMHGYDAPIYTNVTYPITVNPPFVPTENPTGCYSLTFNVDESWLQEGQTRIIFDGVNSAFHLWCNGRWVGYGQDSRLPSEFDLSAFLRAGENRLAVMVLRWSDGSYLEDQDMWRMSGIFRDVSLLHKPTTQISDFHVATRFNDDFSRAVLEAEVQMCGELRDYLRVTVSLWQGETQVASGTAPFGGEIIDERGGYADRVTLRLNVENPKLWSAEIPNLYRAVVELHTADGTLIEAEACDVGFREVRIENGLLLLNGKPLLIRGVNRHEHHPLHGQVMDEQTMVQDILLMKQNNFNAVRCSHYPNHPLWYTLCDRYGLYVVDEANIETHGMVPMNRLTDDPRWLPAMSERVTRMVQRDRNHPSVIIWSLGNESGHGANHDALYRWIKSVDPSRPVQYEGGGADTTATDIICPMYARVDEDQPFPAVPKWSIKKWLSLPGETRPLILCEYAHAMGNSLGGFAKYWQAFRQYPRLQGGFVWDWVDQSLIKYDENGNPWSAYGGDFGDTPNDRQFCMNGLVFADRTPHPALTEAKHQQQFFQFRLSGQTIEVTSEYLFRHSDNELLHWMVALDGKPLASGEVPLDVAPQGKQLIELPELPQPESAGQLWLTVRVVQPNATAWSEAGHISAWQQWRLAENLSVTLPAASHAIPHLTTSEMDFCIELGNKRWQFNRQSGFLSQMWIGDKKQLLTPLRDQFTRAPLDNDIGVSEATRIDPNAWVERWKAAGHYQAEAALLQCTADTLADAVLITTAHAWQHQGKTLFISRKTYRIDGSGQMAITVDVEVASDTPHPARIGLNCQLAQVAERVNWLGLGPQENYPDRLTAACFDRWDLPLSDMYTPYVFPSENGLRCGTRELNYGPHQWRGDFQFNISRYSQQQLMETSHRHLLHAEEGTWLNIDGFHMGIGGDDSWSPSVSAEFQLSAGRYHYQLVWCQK

[10] = Luminescence-based dose response cell-based high throughput screening assay for cytotoxic compounds using the IEC-6 intestinal epithelial cell line. [Related pubchem assays: 1858 (Summary AID.), 1825 (Counterscreen.), 1907 (Confirmation screen.)]; format: functional
[11] = target: T5, Kappa-type opioid receptor (Homo sapiens, UniProt P41145); format: functional
T5 sequence (P41145 whole entry): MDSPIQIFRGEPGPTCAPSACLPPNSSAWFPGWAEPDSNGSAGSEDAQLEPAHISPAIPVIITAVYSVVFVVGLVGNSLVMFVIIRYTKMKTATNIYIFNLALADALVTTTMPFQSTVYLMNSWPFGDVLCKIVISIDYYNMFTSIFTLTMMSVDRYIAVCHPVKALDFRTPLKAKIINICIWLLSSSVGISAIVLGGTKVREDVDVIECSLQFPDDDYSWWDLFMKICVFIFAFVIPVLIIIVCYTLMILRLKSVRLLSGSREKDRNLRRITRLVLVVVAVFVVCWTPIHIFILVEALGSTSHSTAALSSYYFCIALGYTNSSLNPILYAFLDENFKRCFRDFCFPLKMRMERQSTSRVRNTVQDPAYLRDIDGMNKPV

cells = format: functional, cell-based
[12] = target: T6, Zinc finger protein mex-5 (Caenorhabditis elegans, UniProt Q9XUB2); assay: MEX-5/TCR-2 RNA interaction inhibitors, dose response, biochemical, C. elegans, fluorescence polarization (AID 1960)
T6 sequence (Q9XUB2 whole entry): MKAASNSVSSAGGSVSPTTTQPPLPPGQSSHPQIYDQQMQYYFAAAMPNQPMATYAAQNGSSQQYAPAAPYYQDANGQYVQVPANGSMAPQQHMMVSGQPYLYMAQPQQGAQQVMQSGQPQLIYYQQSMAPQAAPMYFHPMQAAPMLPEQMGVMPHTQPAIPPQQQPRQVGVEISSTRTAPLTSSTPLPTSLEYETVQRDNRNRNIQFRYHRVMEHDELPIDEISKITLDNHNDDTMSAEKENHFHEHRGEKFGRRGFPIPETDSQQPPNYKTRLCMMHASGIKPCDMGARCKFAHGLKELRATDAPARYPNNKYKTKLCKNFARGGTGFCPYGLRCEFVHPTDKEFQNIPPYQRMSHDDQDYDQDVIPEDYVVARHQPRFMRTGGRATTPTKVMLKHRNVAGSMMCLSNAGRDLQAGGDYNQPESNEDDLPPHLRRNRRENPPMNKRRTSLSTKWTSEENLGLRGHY

[13] = inhibitors of SNCA 5'UTR-driven reporter translation, confirmation, H4 neuroglioma cells, luminescence (AID 1988); format: functional, cell-based
BJ [14] = assay: cells; format: functional, cell-based; conditions: Homo sapiens
[15] = inhibitors of SNCA 5'UTR-driven translation, confirmation, luminescence, H4 neuroglioblastoma cells, dose confirmation (AID 2454); format: functional, cell-based;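 note: H4 neuroglioblastoma cells carrying an alpha-synuclein 5'UTR luciferase reporter; potency for inhibition of the luciferase signal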
[16] = cytotoxicity toward DRD oncogenic fibroblasts, dose response, cell-based, non-viral oncogenic, luminescence (AID 1934); format: functional; conditions: Homo sapiens
[17] = target: T5, Kappa-type opioid receptor; format: functional; remark: listed apart in the source
Beta-galactosidase [18] = target: T4, Beta-galactosidase; assay: Dose response counterscreen for EBI2 assay utilizing the enzyme, b-galactosidase.; format: functional
[19] = luciferase reporter signal reduction – luminescence, H4-C neuroglioblastoma cells, dose response (AID 2458); format: functional, cell-based;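 note: H4 neuroglioblastoma cells stably carrying a luciferase reporter gene fusion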
BJ [20] = assay: cytotoxicity toward Ras-transformed BJeLR fibroblasts, dose response, cell-based, alamar blue fluorescence, cherrypicked samples (AID 2631); format: functional; conditions: Homo sapiens;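 note: confirmatory dose-response assay in RAS-dependent BJ fibroblasts engineered with TERT, LT and ST, with cytotoxicity read by fluorescence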
[21] = inhibitors of firefly luciferase expression or activity, dose response, H4 neuroglioma cells, luminescence (AID 1990); format: functional, cell-based
[22] = target: Heat shock protein HSP 90-alpha (Homo sapiens, UniProt P07900); format: functional, organism-based
BJ [23] = assay: cytotoxicity toward BJ-TERT-LT-ST fibroblasts, dose response, cell-based, RAS-independent, luminescence (AID 1935); format: functional; conditions: Homo sapiens;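 note: BJ fibroblasts immortalized with TERT plus LT and ST oncogenes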
CAAX prenyl protease 2 = target: T7, CAAX prenyl protease 2 (Saccharomyces cerevisiae S288c, UniProt Q03530); format: biochemical
T7 sequence (Q03530 whole entry): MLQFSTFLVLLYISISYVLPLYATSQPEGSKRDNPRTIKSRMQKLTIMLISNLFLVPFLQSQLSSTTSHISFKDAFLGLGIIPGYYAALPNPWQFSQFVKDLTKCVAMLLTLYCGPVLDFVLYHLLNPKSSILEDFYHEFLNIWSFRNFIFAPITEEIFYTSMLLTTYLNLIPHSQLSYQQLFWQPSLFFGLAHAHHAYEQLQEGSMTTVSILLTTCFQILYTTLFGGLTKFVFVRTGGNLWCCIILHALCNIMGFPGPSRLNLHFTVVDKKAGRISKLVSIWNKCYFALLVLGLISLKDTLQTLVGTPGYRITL

Trypsin = Trypsin (Sus scrofa, UniProt P00761); assay: porcine trypsin inhibitors, dose response, selectivity assay for Rce1 protease inhibitor project, biochemical, quenched peptide fluorescence, cherry-pick (AID 488789)
Trypsin, sequence (P00761 whole entry): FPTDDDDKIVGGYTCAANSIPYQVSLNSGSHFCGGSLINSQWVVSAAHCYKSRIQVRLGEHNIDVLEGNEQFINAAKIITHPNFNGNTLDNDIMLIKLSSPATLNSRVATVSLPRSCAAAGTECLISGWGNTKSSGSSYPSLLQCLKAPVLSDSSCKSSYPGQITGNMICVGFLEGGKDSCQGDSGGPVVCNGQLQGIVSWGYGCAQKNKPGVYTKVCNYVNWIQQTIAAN

[24] = Luminescence Cell-Based Dose Retest to Confirm Inhibitors of Cancer Stem Cells. [Related pubchem assays (depositor defined):AID2717, AID2721]; format: functional; conditions: Homo sapiens

Compound: CCCCC(O)(CCCC)C(=O)NN(C(=O)OC)c1ccccc1
- IC50 [1]: > 35 µM (not active)
- IC50 [2]: > 35 µM (not active)

Compound: O=c1cc(Cn2ccnc2)c2cc3c(cc2o1)CCC3
- EC50 [3]: > 79.4 µM (not active)
- EC50 [4]: > 79.4 µM (not active)
- EC50 [5]: > 79.4 µM (not active)

Compound: C/C(=N\Nc1ncnc2sc(C)c(C)c12)c1ccccn1
- EC50 (BJ [6]): 0.711 µM (inconclusive)
- EC50 [7]: 23.3 µM (inconclusive)
- IC50 (Nonstructural protein 1): 19.3 µM (active)
- EC50 [8]: < 0.1 µM (active)
- EC50 (Beta-galactosidase [9]): > 31.5 µM (inactive)
- IC50 [10]: 0.0762 µM (active)
- IC50 [11]: > 32 µM
- EC50 (cells): 0.472 µM (active)
- EC50 [12]: 46.7 µM (inconclusive)
- EC50 [13]: < 0.1 µM (active)
- EC50 (BJ [14]): 0.966 µM (inconclusive)
- EC50 [15]: 0.378 µM (active)
- EC50 [16]: 2.02 µM (inconclusive)
- IC50 [17]: > 31.5 µM (inactive)
- IC50 (Beta-galactosidase [18]): > 80 µM (inactive)
- EC50 [19]: 0.222 µM (active)
- EC50 (BJ [20]): < 0.104 µM (active)
- EC50 [21]: 0.244 µM (active)
- AC50 [22]: 2.42 µM (active)
- EC50 (BJ [23]): 0.754 µM (inconclusive)

Compound: Cc1nc(N2CCCCC2)c2c(C)c(C(=O)Nc3ccccc3C(F)(F)F)sc2n1
- AC50 (CAAX prenyl protease 2): 13.4 µM (active)
- IC50 [1]: 7.1 µM (active)
- AC50 (Trypsin): > 100 µM (inactive)
- AC50 [24]: 2.18 µM (active)
- IC50 [2]: 6.66 µM (active)
